# B1: WNT3A: Wnt agonist, WNT family ligand (protein, UniProt P56704 19-352, looked up)
# Protein Wnt-3a: SYPIWWSLAVGPQYSSLGSQPILCASIPGLVPKQLRFCRNYVEIMPSVAEGIKIGIQECQHQFRGRRWNCTTVHDSLAIFGPVLDKATRESAFVHAIASAGVAFAVTRSCAEGTAAICGCSSRHQGSPGKGWKWGGCSEDIEFGGMVSREFADARENRPDARSAMNRHNNEAGRQAIASHMHLKCKCHGLSGSCEVKTCWWSQPDFRAIGDFLKDKYDSASEMVVEKHRESRGWVETLRPRYTYFKVPTERDLVYYEASPNFCEPNPETGSFGTRDRTCNVSSHGIDGCDLLCCGRGHNARAERRREKCRCVFHWCCYVSCQECTRVYDVHTCK
# Key:
# Assay type in all cases: cell-based, human
# [1] = test system: hESCs; assay: Primitive streak (PS) induction from hESCs, qPCR
# Description: As aforementioned, after overnight plating, hPSCs were briefly washed (with DMEM/F12) and then differentiated into either anterior primitive streak (30 ng/mL Activin A+4 μM CHIR99021+20 ng/mL FGF2+100 nM PIK90; for subsequent paraxial mesoderm induction) or mid primitive streak ([…] Activin A+40 ng/mL BMP4+6 μM CHIR99021+20 ng/mL FGF2+100 nM PIK90; for subsequent cardiac mesoderm induction) for 24 hrs.
# Total cDNA was diluted 1:10-1:30 in H2O and qPCR was performed with the SensiFAST SYBR Lo-ROX Kit (Bioline) with 10 μL qPCR reactions per well in a 384-well plate: 5.0 μL 2× qPCR Master Mix+4.6 μL cDNA (totaling ˜120 ng of cDNA)+0.4 μL of 10 μM primer stock (5 μM forward+5 μM reverse primers). In general, gene-specific primer pairs were tested for (1) specificity of amplicon amplification (only one peak on a dissociation curve) and (2) linearity of amplicon amplification (linear detection of gene expression in cDNA samples serially diluted seven times over two orders of magnitude, with 90-110% efficiency of amplification deemed acceptably linear). After qPCR plates were prepared by arraying sample-specific cDNAs and gene-specific primers, they were sealed and briefly centrifuged (5 mins). 384-well qPCR plates and their adhesive sealing sheets were obtained from Thermo (AB1384 and AB0558, respectively). qPCR plates were run on a 7900HT Fast Real-Time PCR System (Applied Biosystems) with the following cycling parameters: initial dissociation (95° C., 2 mins) followed by 40 cycles of amplification and SYBR signal detection (95° C. dissociation, 5 seconds; 60° C. annealing, 10 seconds; followed by 72° C. extension, 30 seconds), with a final series of steps to generate a dissociation curve at the end of each qPCR run. During qPCR data analysis, the fluorescence threshold to determine Ct values was set at the linear phase of amplification; other qPCR data analysis methods including qPCR heatmap generation using the GenePattern platform (Broad Institute) were described previously by Loh et al., 2014, the disclosure of which is incorporated herein by reference in its entirety.
# E) To assess whether inducing PS in the presence of TGFβ signaling altered its downstream potential to form different kinds of mesoderm, (i) H7 hESCs were differentiated into PS with CHIR99021+FGF2+PIK90 (CFK) for 24 hours in the presence or absence of increasing amounts of Activin (10-100 ng/mL), and then were transferred into paraxial mesoderm induction conditions (A-83-01+CHIR99021+DM3189+FGF2) for 24 hrs, and qPCR was conducted or (ii) H7 hESCs were differentiated into PS with BMP4 (10 ng/mL)+CHIR99021+FGF2+PIK90 (B10CFK) for 24 hours in the presence or absence of increasing amounts of Activin (10-100 ng/mL), and then were transferred into lateral/cardiac mesoderm inductions (A-83-01+BMP4+C59) for 24 hours and qPCR was conducted. […] F) To assess whether inducing PS in the presence of BMP signaling altered its downstream potential to form different kinds of mesoderm, H7 hESCs were differentiated into PS with Activin (10 ng/mL)+CHIR99021+FGF2+PIK90 (A10CFK) for 24 hours in the presence of absence of increasing amounts of BMP4 (1-40 ng/mL), and then were (i) transferred into paraxial mesoderm induction conditions (A-83-01+CHIR99021+DM3189+FGF2) for 24 hrs, and qPCR was conducted or were (ii) transferred into lateral/cardiac mesoderm inductions (A-83-01+BMP4+C59) for 24 hours and qPCR was conducted. […] G) H7 hESCs were differentiated into anterior primitive streak (30 ng/mL Activin+4 μM CHIR99021+20 ng/mL FGF2+100 nM PIK90) in the presence or absence of BMP4 (10 ng/mL) for 24 hours, and then transferred into paraxial mesoderm induction conditions for 24 hours before TBX6 immunostaining was conducted. […]
# [2] = test system: hESC-derived primitive streak; assay: Paraxial versus lateral/cardiac mesoderm specification from primitive streak; details: for paraxial mesoderm induction (qPCR day 2): ACF with DMH1 1 μM or LDN193189 250 nM, CDF with SB-505124 2 μM or A-83-01 1 μM, 24 hours
# Description: Subsequently, day 1 anterior primitive streak was briefly washed (DMEM/F12) and differentiated towards day 2 paraxial mesoderm for 24 hours (1 μM A-83-01+3 μM CHIR99021+250 nM LDN-193189+20 ng/mL FGF2). Separately, day 1 mid primitive streak was differentiated towards day 2 lateral mesoderm for 24 hours (1 μM A-83-01+30 ng/mL BMP4+1 μM C59; with 2 μM SB-505124 sometimes used instead of A-83-01).
# B) To assess whether FGF/ERK signaling was permissive for both paraxial and lateral/cardiac mesoderm specification, hESCs were differentiated into primitive streak for 24 hours, and then transferred into (i) A-83-01+DM3189 (“AD”; permissive for paraxial mesoderm) or (iii) A-83-01+BMP4+C59 (“AB+C59”; permissive for lateral/cardiac mesoderm) for 24 hours in the presence or absence of a FGF agonist (FGF2, 10-20 ng/mL), an FGFR inhibitor (PD173074, 100 nM) or a MAPK/ERK inhibitor (PD0325901, 500 nM) for 24 hours and qPCR for all experiments was conducted on day 2 (that is, after 48 total hours of hESC differentiation). To assess whether TGFβ signaling altered paraxial, intermediate and lateral/cardiac mesoderm specification, hESCs were differentiated into primitive streak for 24 hours, and then transferred into (ii) DM3189+FGF2 (“DF”; permissive for paraxial mesoderm) or (iv) BMP4+C59 (“B+C59”; permissive for lateral/cardiac mesoderm) for 24 hours in the presence of a TGFβ agonist (Activin, 10-25 ng/mL) or a TGFβR inhibitor (A-83-01, 1 μM) for 24 hours or (v) BMP4 (3 ng/mL)+FGF2 (20 ng/mL) (“B3F20”) for 24 hours in the presence of a TGFβ agonist (Activin, 3-25 ng/mL) or a TGFβR inhibitor (A-83-01, 1 μM) and qPCR for all experiments was conducted on day 2 (that is, after 48 total hours of hESC differentiation). […] Therefore, hESCs were differentiated towards primitive streak for 24 hours, and then subsequently transferred into (i) A-83-01+CHIR99021+FGF2 (ACF) in the presence or absence of one of two BMPR inhibitors (DMH1, 1 μM or LDN193189, 250 nM) for 24 hours and qPCR was conducted on day 2. Alternately, hESC-derived PS was transferred into (ii) CHIR99021+DM3189+FGF2 (CDF) for 24 hours in the presence or absence of a TGFβ agonist (25 ng/mL Activin) or one of two TGFβR inhibitors (SB-505124, 2 μM or A-83-01, 1 μM) for 24 hours and qPCR was conducted on day 2. […] E) To test the role of FGF in lateral mesoderm induction (on day 2 of hESC differentiation), NKX2.5-GFP hESCs were differentiated into mid primitive streak for 24 hours, and then were treated with BMP4+C59+SB505124 in the presence of an FGF agonist (FGF2, 20-50 ng/mL) or a FGFR inhibitor (PD173074, 100 nM) or a MAPK/ERK inhibitor (PD0325901, 500 nM) for 24 hours, and then all cultures were treated with BMP4+C59+SB505124+FGF2 for 24 hours more before being harvested on day 3 for FACS.
# [3] = test system: day 2 paraxial mesoderm; assay: Early somite progenitor formation from paraxial mesoderm, qPCR; details: 24 hours
# Description: Day 2 paraxial mesoderm was briefly washed (DMEM/F12) and further differentiated into day 3 early somite/somitomere precursors for 24 hours (1 μM A-83-01+250 nM LDN-193189+1 μM C59+500 nM PD0325901). Subsequently, day 3 early somites were dorsoventrally patterned into either ventral somites/sclerotome (5 nM 21K+1 μM C59) or dorsal somites/dermomyotome (3 μM CHIR99021+150 nM Vismodegib). Sclerotome induction was conducted for 48-72 hours (leading to day 5-6 ventral somite progenitors). For dermomyotome induction, sometimes dermomyotome was induced in the presence of 50 ng/mL BMP4 to upregulate PAX7 after 48 hours of BMP4+CHIR99021+Vismodegib differentiation (leading to day 5 dermomyotome progenitors). Media was changed 24 hours for all steps.
# [4] = test system: lateral mesoderm; assay: Forelimb versus hindlimb progenitor specification from lateral mesoderm; details: for competence of lateral mesoderm for forelimb fate: lateral mesoderm induced in presence of retinoid antagonists
# Description: Undifferentiated hPSCs (wild-type H7 as well as TBX5-Venus V19-2 H9 hESCs) were maintained in mTeSR1 media on Geltrex-coated plates. As described, they were differentiated into mid primitive streak for 24 hours (D0-1; 30 ng/mL Activin+40 ng/mL BMP4+6 μM CHIR99021+20 ng/mL FGF2+100 nM PIK90) and subsequently differentiated into lateral mesoderm (D1-2; 1 μM A-83-01+30 ng/mL BMP4+1 μM C59), with the inclusion of 50 nM of TTNPB or 2 μM ATRA on D1-2 for trunk lateral mesoderm that was subsequently competent for forelimb differentiation.
# Day 2 trunk lateral mesoderm was differentiated into day 3 forelimb progenitors (D2-3; 1 μM A-83-01+1 μM DMH1+3 μM CHIR99021). By contrast, day 2 non-trunk lateral mesoderm was differentiated into day 3 hindlimb progenitors (D2-3; 25 ng/mL Activin+1 μM DMH1+3 μM CHIR99021).
molecule,measurement,setting,value
"Cc1cccc(-c2nn(C(=S)Nc3ccccc3)cc2-c2ccnc3ccccc23)n1 [A-83-01, 3-(6-Methyl-2-pyridinyl)-N-phenyl-4-(4-quinolinyl)-1H-pyrazole-1-carbothioamide]",PS differentiation,[1]; CHIR99021+20 ng/mL FGF2+100 nM PIK90 with 2 μM SB-505124 or 1 μM A-83-01,strongly impairs PS differentiation
same,paraxial mesoderm induction (qPCR day 2),[2],serve to induce paraxial mesoderm
same,NKX2.5-GFP+ cardiac mesoderm induction (FACS day 3),"[2]; BMP4 (50 ng/mL)+C59, 48 hours, SB-505124 2 μM or A-83-01 1 μM, P<0.01",increased NKX2.5-GFP^+ cardiac mesoderm induction
same,early somite marker expression (qPCR day 3),[3]; CDPR with A-83-01 1 μM,permissive for expression of early somite markers
Cc1ccc(C2=CCC(C)(C)c3ccc(C#Cc4ccc(C(=O)O)cc4)cc32)cc1 [AGN193109],competence of lateral mesoderm for forelimb fate,[4],incompetent to subsequently assume a forelimb fate
CC1(C)CC=C(C#Cc2ccccc2)c2cc(/C=C/c3ccc(C(=O)O)cc3)ccc21 [BMS493],competence of lateral mesoderm for forelimb fate,[4],incompetent to subsequently assume a forelimb fate
"CC(C)Oc1ccc(-c2cnc3c(-c4ccnc5ccccc45)cnn3c2)cc1 [DMH1, 4-[6-[4-(1-Methylethoxy)phenyl]pyrazolo[1,5-a]pyrimidin-3-yl]-quinoline]",paraxial mesoderm induction (qPCR day 2),[2],serve to induce paraxial mesoderm
"Cl.c1ccc2c(-c3cnn4cc(-c5ccc(N6CCNCC6)cc5)cnc34)ccnc2c1 [LDN193189, 4-[6-[4-(1-Piperazinyl)phenyl]pyrazolo[1,5-a]pyrimidin-3-yl]-quinoline hydrochloride]",PS formation and anterior-posterior patterning,[1]; ACFK with LDN193189 250 nM or BMP4 3-100 ng/mL,fully abolished PS formation
same,paraxial mesoderm induction (qPCR day 2),[2],serve to induce paraxial mesoderm
same,early somite marker expression (qPCR day 3),[3]; CPR with DM3189 250 nM,permissive for expression of early somite markers
CC1=C(/C=C/C(C)=C/C=C/C(C)=C/C(=O)O)C(C)(C)CCC1 [all-trans retinoic acid],early somite marker expression (qPCR day 3),[3]; ACDP with RA 0.5-2 μM,dispensable for the expression of early somite markers
same,early somite marker expression (qPCR day 3),"[3]; ACDP with RA 0.5-2 μM, listed as RA",dispensable for early somite formation
same,forelimb transcription factor TBX5 expression on D3,[4]; RA signaling activated for 24 hours during lateral mesoderm induction (D1-2),paramount for lateral mesoderm to subsequently express key forelimb transcription factor TBX5
B1,PS marker expression (qPCR),"[1]; 24 hours in A3B3F20, 300 ng/mL WNT3A or 0.5-8 μM CHIR99021","broadly induces both anterior (TBX6) and mid/posterior (FOXF1, MESP1) PS markers"

# Source: patent US10787640B2, “Producing mesodermal cell types and methods of using the same” (The Board of Trustees of the Leland Stanford Junior …, priority 2015, dated 2020)
